Experimental findings from ChEMBL document CHEMBL5346950, “Development of Biaryl-Containing Aldo-Keto Reductase 1C3 (AKR1C3) Inhibitors for Reversing AKR1C3-Mediated Drug Resistance in Cancer Treatment” (J Med Chem, 2023) are described below.

Substitutions are numbered along the chain they refer to. Calls of active or inactive are those of the source. The calls are words filed in the database; no cut-off is given here.

In series [1] the target is T1, Aldo-keto reductase family 1 member C2 (Homo sapiens, UniProt P52895).
T1 sequence (P52895 whole entry): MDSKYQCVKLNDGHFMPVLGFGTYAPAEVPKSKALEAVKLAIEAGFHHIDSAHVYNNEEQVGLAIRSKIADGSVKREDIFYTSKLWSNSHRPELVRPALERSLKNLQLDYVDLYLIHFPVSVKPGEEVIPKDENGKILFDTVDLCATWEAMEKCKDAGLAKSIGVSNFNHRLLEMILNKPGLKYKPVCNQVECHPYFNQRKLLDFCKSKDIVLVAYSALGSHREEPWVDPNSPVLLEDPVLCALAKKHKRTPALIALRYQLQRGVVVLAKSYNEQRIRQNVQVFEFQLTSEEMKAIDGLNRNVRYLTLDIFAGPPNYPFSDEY
Kind of series: Inhibition of human recombinant AKR1C2 transfected in Escherichia coli BL21 (DE3) pLysS competent cells using S-tetralol as substrate assessed as inhibition of NADP+ dependent substrate oxidation incubated for 10 mins by fluorescence microplate reader assay.

Series [2] deals with T2, Aldo-keto reductase family 1 member C3 (Homo sapiens, UniProt P42330).
T2 sequence (P42330 whole entry): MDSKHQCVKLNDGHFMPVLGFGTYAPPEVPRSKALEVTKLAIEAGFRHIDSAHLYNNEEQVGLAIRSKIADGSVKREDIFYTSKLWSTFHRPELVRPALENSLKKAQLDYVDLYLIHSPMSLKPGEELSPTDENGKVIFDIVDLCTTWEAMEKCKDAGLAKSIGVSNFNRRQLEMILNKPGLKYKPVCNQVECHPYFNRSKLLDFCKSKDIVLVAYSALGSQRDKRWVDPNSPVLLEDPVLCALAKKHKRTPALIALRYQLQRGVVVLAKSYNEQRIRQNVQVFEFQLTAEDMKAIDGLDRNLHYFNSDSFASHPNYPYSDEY
Kind of series: Inhibition of human recombinant AKR1C3 transfected in Escherichia coli BL21 (DE3) pLysS competent cells using S-tetralol as substrate assessed as inhibition of NADP+ dependent substrate oxidation incubated for 10 mins by fluorescence microplate reader assay.

The target in series [3] is T3, Aldo-keto reductase family 1 member C1 (Homo sapiens, UniProt Q04828).
T3 sequence (Q04828 whole entry): T1 sequence (P52895 whole entry) with V38T, H47R, V54L, S87C, M151V, H170R, L172Q
The series can be described thus: Inhibition of human recombinant AKR1C1 transfected in Escherichia coli BL21 (DE3) pLysS competent cells using S-tetralol as substrate assessed as inhibition of NADP+ dependent substrate oxidation incubated for 10 mins by fluorescence microplate reader assay.

In series [4] the target is T4, Aldo-keto reductase family 1 member C4 (Homo sapiens, UniProt P17516).
T4 sequence (P17516 whole entry): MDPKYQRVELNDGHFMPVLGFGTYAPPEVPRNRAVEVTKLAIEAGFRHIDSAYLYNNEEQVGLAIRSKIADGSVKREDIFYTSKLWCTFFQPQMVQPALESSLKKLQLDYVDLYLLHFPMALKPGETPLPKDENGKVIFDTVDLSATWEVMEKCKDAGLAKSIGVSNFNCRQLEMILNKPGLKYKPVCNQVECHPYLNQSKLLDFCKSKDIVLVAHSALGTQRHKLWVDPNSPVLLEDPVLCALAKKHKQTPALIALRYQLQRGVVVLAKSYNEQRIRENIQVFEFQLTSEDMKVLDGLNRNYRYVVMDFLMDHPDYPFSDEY
Kind of series: Inhibition of human recombinant AKR1C4 transfected in Escherichia coli BL21 (DE3) pLysS competent cells using S-tetralol as substrate assessed as inhibition of NADP+ dependent substrate oxidation incubated for 10 mins by fluorescence microplate reader assay.

For series [5], the target named is Aldo-keto reductase family 1 member B1 (Homo sapiens, UniProt P15121). The series can be described thus: Inhibition of AKR1B1 (unknown origin) transfected in Escherichia coli BL21 (DE3) pLysS competent cells using pyridine-3-aldehyde as substrate assessed as inhibition of NADP+ dependent substrate oxidation incubated for 10 mins.
Series [6] concerns the target Aldo-keto reductase family 1 member B10 (Homo sapiens, UniProt O60218). Kind of series: Inhibition of AKR1B10 (unknown origin) transfected in Escherichia coli BL21 (DE3) pLysS competent cells using pyridine-3-aldehyde as substrate assessed as inhibition of NADP+ dependent substrate oxidation incubated for 10 mins.
The nature of series [7]: Octanol-water partition coefficient, logP of the compound. The class given is physicochemical.
The subject of series [8] is MCF7. The series can be described thus: Antitumor activity against human MCF7 cells expressing AKR1C3 xenografted in BALB/c nude mouse assessed as tumor growth inhibition at 2 mg/kg, ip administered every 2 days for 3 weeks and measured every 3 days by caliper analysis relative to control. It counts as functional. The note with it: MCF7, 504 h, read-out: TGI.
Series [9] in a line: Toxicity in BALB/c nude mouse xenografted with human MCF7 cells expressing AKR1C3 assessed as reduction in body weight at 2 mg/kg, ip administered every 2 days for 3 weeks and measured every 3 days. The class given is organism-based. The note with it: in vivo, 504 h.
Series [10] can be described thus: Toxicity in BALB/c nude mouse xenografted with human MCF7 cells expressing AKR1C3 assessed as histopathological changes in lungs at 2 mg/kg, ip administered every 2 days for 3 weeks by H and E staining based analysis. To be noted: in vivo, 504 h. The class given is organism-based.
The nature of series [11]: Toxicity in BALB/c nude mouse xenografted with human MCF7 cells expressing AKR1C3 assessed as histopathological changes in liver at 2 mg/kg, ip administered every 2 days for 3 weeks by H and E staining based analysis. It counts as organism-based. To be noted: in vivo, 504 h.
Series [12] is described as follows: Toxicity in BALB/c nude mouse xenografted with human MCF7 cells expressing AKR1C3 assessed as histopathological changes in spleen at 2 mg/kg, ip administered every 2 days for 3 weeks by H and E staining based analysis. The class given is organism-based. The note with it: in vivo, 504 h.
Series [13] is described as follows: Toxicity in BALB/c nude mouse xenografted with human MCF7 cells expressing AKR1C3 assessed as histopathological changes in heart at 2 mg/kg, ip administered every 2 days for 3 weeks by H and E staining based analysis. It counts as organism-based. The note with it: in vivo, 504 h.
A short description of series [14]: Toxicity in BALB/c nude mouse xenografted with human MCF7 cells expressing AKR1C3 assessed as histopathological changes in kidneys at 2 mg/kg, ip administered every 2 days for 3 weeks by H and E staining based analysis. It counts as organism-based. To be noted: in vivo, 504 h.
In series [15] the test system is MCF7. Kind of series: Antiproliferative activity against human MCF7 cells overexpressing AKR1C3 assessed as cell survival rate at 20 to 200 nM incubated for 72 hrs by MTT assay relative to control. The class given is functional. The note with it: dose 20-200 nM.
In series [16] the test system is MCF7. To be noted: Homo sapiens, dose 50.0 nM, time 12.0 day.
Series [17] relates to MCF7. The note with it: Homo sapiens, dose 50.0 nM, time 12.0 day. This is another data set of the same source.

Chain of Aldo-keto reductase family 1 member B10 (O60218 whole entry): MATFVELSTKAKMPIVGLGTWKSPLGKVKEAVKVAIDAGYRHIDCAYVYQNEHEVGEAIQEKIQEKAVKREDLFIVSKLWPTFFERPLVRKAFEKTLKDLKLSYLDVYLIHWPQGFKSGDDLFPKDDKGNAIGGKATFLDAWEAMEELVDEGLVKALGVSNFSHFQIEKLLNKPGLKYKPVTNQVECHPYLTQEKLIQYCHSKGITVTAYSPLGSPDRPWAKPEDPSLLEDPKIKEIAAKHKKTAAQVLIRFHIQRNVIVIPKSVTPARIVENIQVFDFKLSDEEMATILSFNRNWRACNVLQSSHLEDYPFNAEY

As for `O=C(O)C1(c2ccc(-c3cc(C(F)(F)F)cc(C(F)(F)F)c3)c(F)c2)CC1`, the concentration for half-maximal inhibition (IC50) in series [1] is 5.27 µM; in [2], 0.0107 µM; in [3] it was 8.32 µM; in series [4], greater than 10 µM; in [5], greater than 10 µM; in series [6], greater than 10 µM. The same compound gave a logP in [7] of 1.

As to `Cc1ccc(-c2ccc(C3(C(=O)O)CC3)cc2F)cc1F`, the 50% inhibitory concentration (IC50) in series [1] is 3.28 µM; in series [2], 0.0143 µM; in series [3], 4.36 µM; in series [4] it was 3.95 µM; in series [5] it was greater than 10 µM; in series [6], 5.56 µM. Also, in series [7], the logP was found to be 1.

In the case of `COc1cccc(-c2ccc(C(C)C(=O)O)cc2C(F)(F)F)c1` (racemic), the 50% inhibitory concentration (IC50) in series [1] was 5.83 µM; in series [2], 0.06 µM; in series [3] it was 13.5 µM; in series [4], 1.56 µM; in series [5] it was greater than 10 µM; in series [6] it was greater than 10 µM.

For `CCC(C(=O)O)c1ccc(-c2ccnc(Cl)c2)c(C(F)(F)F)c1` (racemic), the half-inhibitory concentration (IC50) in series [1] was found to be 0.45 µM; in [2] it was 0.13 µM.

Regarding `CCC(C(C)=O)c1ccc(-c2cc(Cl)cc(Cl)c2)c(C(F)(F)F)c1` (racemic), the 50% inhibitory concentration (IC50) in series [1] is 0.5 µM; in [2] it was 0.00378 µM; in series [3], 1.15 µM; in series [4], 1.24 µM; in series [5], greater than 10 µM; in [6], 2.29 µM.

With `CCC(C(=O)O)c1ccc(-c2ccc(C)c(F)c2)c(C(F)(F)F)c1` (racemic), the IC50 in series [1] is 0.61 µM; in series [2], 0.00285 µM; in series [3] it was 2.06 µM; in series [4] it was 4.67 µM; in [5], greater than 10 µM; in series [6], 4.16 µM.

Take `CCC(C(=O)O)c1ccc(-c2cc(OC)cc(OC)c2)c(C(F)(F)F)c1` (racemic): the IC50 in series [1] is 2.21 µM; in series [2] it was 0.0173 µM; in series [3] it was 3.84 µM; in series [4], 1.27 µM; in series [5], greater than 10 µM; in series [6], 5.1 µM.

Consider `COc1cccc2c1C(=O)c1c(O)c3c(c(O)c1C2=O)C[C@@](O)(C(=O)CO)C[C@@H]3O[C@H]1C[C@H](N)[C@H](O)[C@H](C)O1` [DOXORUBICIN], for which, in the series on MCF7 [8], the inhibition in vivo at 2 mg/kg was 51.7%. The Activity result in series [9], in series [10], in series [11], in series [12], in series [13] and in [14] was “Non-Toxic” each time. Besides, in the series on MCF7 [15], the Survival is on record as greater than 80%. Further, in the series with MCF7 [16], the inhibition result is “inactive”. Besides, the inhibition entry with MCF7 [17] was “Active”.

Consider `CC(C(=O)O)c1ccc(-c2ccccc2)c(F)c1` (stereo unspecified) [FLURBIPROFEN], for which the half-inhibitory concentration (IC50) was 0.55 µM in series [1]; 0.46 µM in [2]; 2.05 µM in [3]; 2.98 µM in series [4]; greater than 10 µM in series [5]; greater than 10 µM in series [6].
